In article PMC8446577, “Novel cold-adapted raw-starch digesting α-amylases from Eisenia fetida: Gene cloning, expression, and characterization” (Biotechnology Reports, 2021):

Target: T1, rEf-Amy I (Eisenia fetida, UniProt A0A173N065)
T1 construct: gene alpha-amylase; mature enzyme without signal peptide, secreted from Pichia pastoris GS115 (pPICZalphaA, codon-optimised gene), HisTrap purified, 57 kDa by SDS-PAGE; precursor 510 residues; borders from printed domain limits E18-V510
T1 sequence (A0A173N065 18-510): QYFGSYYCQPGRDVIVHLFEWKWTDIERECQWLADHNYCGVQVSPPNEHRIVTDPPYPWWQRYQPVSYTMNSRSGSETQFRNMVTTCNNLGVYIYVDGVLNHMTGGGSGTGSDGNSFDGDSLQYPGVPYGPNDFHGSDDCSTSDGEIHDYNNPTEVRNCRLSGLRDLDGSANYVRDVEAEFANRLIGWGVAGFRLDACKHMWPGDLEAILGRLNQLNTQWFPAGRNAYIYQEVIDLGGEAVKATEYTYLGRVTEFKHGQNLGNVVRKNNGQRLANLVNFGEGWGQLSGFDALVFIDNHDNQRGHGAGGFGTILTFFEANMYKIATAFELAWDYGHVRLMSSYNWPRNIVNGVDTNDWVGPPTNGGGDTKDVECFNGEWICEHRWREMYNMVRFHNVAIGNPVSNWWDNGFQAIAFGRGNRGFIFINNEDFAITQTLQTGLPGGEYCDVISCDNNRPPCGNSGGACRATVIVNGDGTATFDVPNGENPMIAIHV
Experiment: HPLC (RI detection) of hydrolysis products
Type: biochemical
Details: 5 mM substrate, 50 mM sodium acetate pH 5.5, 37 °C

Row | SMILES | HPLC (RI detection) of hydrolysis products
1 | OC[C@H]1O[C@H](O[C@H]2[C@H](O)[C@@H](O)[C@@H](O[C@H]3[C@H](O)[C@@H](O)[C@@H](O[C@H]4[C@H](O)[C@@H](O)[C@@H](O[C@H]5[C@H](O)[C@@H](O)C(O)O[C@@H]5CO)O[C@@H]4CO)O[C@@H]3CO)O[C@@H]2CO)[C@H](O)[C@@H](O)[C@@H]1O (some centres unmarked) [maltopentaose] | In the case of Ef-Amy I, the major hydrolysis products from Mal5 were Mal and Mal3
2 | OC[C@H]1O[C@H](O[C@H]2[C@H](O)[C@@H](O)[C@@H](O[C@H]3[C@H](O)[C@@H](O)[C@@H](O[C@H]4[C@H](O)[C@@H](O)C(O)O[C@@H]4CO)O[C@@H]3CO)O[C@@H]2CO)[C@H](O)[C@@H](O)[C@@H]1O (some centres unmarked) [maltotetraose] | from Mal4 was Mal (Fig. 5B)
